Consider 30 compounds from patent US12275729B2 (Merck Sharp & Dohme LLC, priority 2017, dated 2025).

Each structure is given as a SMILES string. pIC50: −log10 of the molar value.

Assay [1] addresses T1, IDO1 (Homo sapiens, UniProt P14902). In words: IDO1 Cellular Assay in HeLa Cells Stimulated with IFNγ. It is filed as cell-based.
In assay [2] the target is T1, IDO1. The experiment in a line: IDO1 Human Whole Blood Assay. It counts as cell-based. Further details: Human whole blood was drawn in sodium heparin coated tubes from healthy internal donors; from tissue; host or cells: human whole blood from healthy donors, stimulated with LPS and IFNγ. The following applies: LPS and IFNγ stimulated.
The mark [3] stands for this setting: about 48 hours, read-out: Hela IC50.

T1 sequence (P14902 whole entry): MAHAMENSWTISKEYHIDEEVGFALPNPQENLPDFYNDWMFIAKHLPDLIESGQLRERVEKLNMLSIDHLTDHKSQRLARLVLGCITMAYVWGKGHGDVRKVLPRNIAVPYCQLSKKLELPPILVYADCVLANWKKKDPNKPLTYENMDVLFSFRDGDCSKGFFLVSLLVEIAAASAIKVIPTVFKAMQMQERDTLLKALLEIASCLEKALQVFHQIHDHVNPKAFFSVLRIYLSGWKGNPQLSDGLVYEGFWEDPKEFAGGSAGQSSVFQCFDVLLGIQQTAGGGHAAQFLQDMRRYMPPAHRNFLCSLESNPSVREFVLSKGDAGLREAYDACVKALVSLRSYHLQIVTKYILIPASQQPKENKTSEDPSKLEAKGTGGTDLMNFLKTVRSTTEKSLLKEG

What is called pIC50 is the IC50 on a negative log10 scale, so that one unit is a factor of ten. `O=C(C1CC1)N1CCCc2cc(C3(C(=O)Nc4ccc(F)cn4)CCC3)ccc21` [Example 96, 1-(1-(cyclopropanecarbonyl)-1,2,3,4-tetrahydroquinolin-6-yl)-N-(5-fluoropyridin-2-yl)cyclobutane-1-carboxamide]: the pIC50 on IDO1 [1] (setting [3]) was 8.21; at IDO1 [2] it was 6.65.
As to `COCCOC(=O)N1CCCc2nc(C(C)NC(=O)c3ccc(Cl)cc3)ccc21` (stereo not drawn) [Example 212, 2-methoxyethyl 6-{1-[(4-chlorobenzene-1-carbonyl)amino]ethyl}-3,4-dihydro-1,5-naphthyridine-1(2H)-carboxylate], the values for the pIC50 on IDO1 [1] (setting [3]) and against IDO1 [2] were 8.52 and 7.46, respectively.
In the same order, the values of `CC(C)NC(=O)N1CCCc2cc([C@H](C)C(=O)Nc3ccc(F)cc3)ccc21` [Example 89, 6-{(2S)-1-[(4-fluorophenyl)amino]-1-oxopropan-2-yl}-N-(propan-2-yl)-3,4-dihydroquinoline-1(2H)-carboxamide] are 8.49 and 7.42.
As to `O=C([C@H]1CCCCO1)N1CCCc2cc(C3(C(=O)Nc4ccc(F)cc4)CCC3)ccc21` (single isomer, unassigned) [Example 106], the pIC50 at IDO1 [1] (setting [3]) is 8.92; at IDO1 [2], 7.92.
Regarding `Cn1ccc(C(=O)N2CCCc3cc(C4(C(=O)Nc5ccc(F)cn5)CCC4)ccc32)n1` [Example 120, N-(5-fluoropyridin-2-yl)-1-[1-(1-methyl-1H-pyrazole-3-carbonyl)-1,2,3,4-tetrahydroquinolin-6-yl]cyclobutane-1-carboxamide], the pIC50 on IDO1 [1] (setting [3]) was 8.85; at IDO1 [2] it was 6.67.
`Cc1nccc(N2CCCc3nc(C4(C(=O)Nc5ccc(F)cc5)CC5(CC5)C4)ccc32)n1` [Example 415, 2-(5-((4-fluorophenyl)carbamoyl)spiro [2.3]hexan-5-yl)-5-(2-methylpyrimidin-4-yl)-5,6,7,8-tetrahydro-1,5-naphthyridin-1-ium 2,2,2-trifluoroacetate]: the negative logarithm of the IC50 (pIC50) is 8.50 at IDO1 [1] (read-out: Hela IC50) and 7.74 against IDO1 [2].
Regarding `CC(NC(=O)c1ccc(F)cc1)c1ccc2c(n1)CCCN2C(=O)c1cc(C(F)(F)F)ccn1` (stereo not drawn) [Example 278, 4-fluoro-N-(1-(5-(4-(trifluoromethyl)picolinoyl)-5,6,7,8-tetrahydro-1,5-naphthyridin-2-yl)ethyl)benzamide], the negative-log IC50 (pIC50) on IDO1 [1] (setting [3]) is 6.33; on IDO1 [2], 7.30.
With `CC(NC(=O)c1ccc(Cl)cc1)c1ccc2c(n1)CCCN2C(=O)OCC(F)(F)F` (stereo not drawn) [Example 310], the pIC50 is 8.79 on IDO1 [1] (read-out: Hela IC50) and 7.34 at IDO1 [2].
For `Cc1nccc(N2CCCc3nc(C4(NC(=O)c5ccc(F)c(Br)c5)CC4)ccc32)n1` [Example 304, 3-bromo-4-fluoro-N-(1-(5-(2-methylpyrimidin-4-yl)-5,6,7,8-tetrahydro-1,5-naphthyridin-2-yl)cyclopropyl)benzamide], the pIC50 on IDO1 [1] (setting [3]) is 8.55; on IDO1 [2] it was 7.09.
With `O=C(N[C@H](c1ccc2c(n1)CCCN2C(=O)C1CC1)C(F)(F)F)c1ccc(F)cc1` [Example 424, (R)—N-(1-(5-(cyclopropanecarbonyl)-5,6,7,8-tetrahydro-1,5-naphthyridin-2-yl)-2,2,2-trifluoroethyl)-4-fluorobenzamide], the pIC50 at IDO1 [1] (read-out: Hela IC50) was 7.35; against IDO1 [2] it was 6.84.
In the case of `CC(NC(=O)c1ccc(Cl)cc1)c1ccc2c(n1)CCCN2c1cccc(CO)n1` (stereo not drawn) [Example 346, 4-chloro-N-(1-(5-(6-(hydroxymethyl)pyridin-2-yl)-5,6,7,8-tetrahydro-1,5-naphthyridin-2-yl)ethyl)benzamide], the pIC50 was 8.09 at IDO1 [1] (read-out: Hela IC50) and 7.00 against IDO1 [2].
As to `Cc1nccc(N2CCCCc3nc(C4(NC(=O)c5ccc(F)cc5)CC4)ccc32)n1` [Example 432, 4-fluoro-N-(1-(5-(2-methylpyrimidin-4-yl)-6,7,8,9-tetrahydro-5H-pyrido[3,2-b]azepin-2-yl)cyclopropyl)benzamide], the pIC50 is 8.48 at IDO1 [1] (value in running text, read-out: Hela Cell IC50) and 8.40 against IDO1 [2].
With `COC[C@H](C)OC(=O)N1CCCc2nc(C(C)NC(=O)c3ccc(Cl)cc3)ccc21` (stereo partly drawn) [Example 330, (S)-1-methoxypropan-2-yl 6-(1-(4-chlorobenzamido)ethyl)-3,4-dihydro-1,5-naphthyridine-1(2H)-carboxylate], the negative-log IC50 (pIC50) at IDO1 [1] (read-out: Hela IC50) is 8.96; at IDO1 [2], 5.31.
With `CC(C)CC(=O)N1CCCc2cc([C@@H](C)NC(=O)c3ccc(Cl)cc3)ccc21` (racemic) [Example 28, 4-chloro-N-{(1R)-1-[1-(3-methyl-butanoyl)-1,2,3,4-tetrahydroquinolin-6-yl]ethyl}benzamide], the pIC50 at IDO1 [1] (setting [3]) was 8.42; against IDO1 [2] it was 7.48.
Regarding `CC(C(=O)Nc1ccc(F)cc1)c1ccc2c(c1)CCCN2Cc1cccc(Cl)c1` (single isomer, unassigned) [Example 225, 2-{1-[(3-chlorophenyl)methyl]-1,2,3,4-tetrahydroquinolin-6-yl}-N-(4-fluorophenyl)propanamide], the pIC50 on IDO1 [1] (setting [3]) is 8.33; at IDO1 [2], 6.83.
For `Cc1nccc(N2CCCc3nc(C(C)C(=O)Nc4ccc(Cl)cc4)ccc32)n1` (stereo not drawn) [Example 362, N-(4-chlorophenyl)-2-(5-(2-methylpyrimidin-4-yl)-5,6,7,8-tetrahydro-1,5-naphthyridin-2-yl)propanamide], the pIC50 on IDO1 [1] (read-out: Hela IC50) was 9.16; at IDO1 [2], 6.01.
For `Cc1nccc(N2CCCc3nc(C4(NC(=O)c5ccc(F)cc5)CCC4)ccc32)n1` [Example 402, 4-fluoro-N-(1-(5-(2-methylpyrimidin-4-yl)-5,6,7,8-tetrahydro-1,5-naphthyridin-2-yl)cyclobutyl)benzamide], the pIC50 is 8.77 on IDO1 [1] (setting [3]) and 8.52 at IDO1 [2].
Take `O=C(OC1CC1)N1CCCc2nc(C3(C(=O)Nc4ccc(F)cc4)COC3)ccc21` [Example 266, cyclopropyl 6-(3-((4-fluorophenyl)carbamoyl)oxetan-3-yl)-3,4-dihydro-1,5-naphthyridine-1(2H)-carboxylate]: the results for the pIC50 on IDO1 [1] (setting [3]) and against IDO1 [2] were 8.55 and 8.40, respectively.
In the same order, the values of `Cc1nccc(N2CCCc3nc(C4(NC(=O)c5ccc(Cl)cc5)CC4)ccc32)n1` [Example 249, 4-chloro-N-(1-(5-(2-methylpyrimidin-4-yl)-5,6,7,8-tetrahydro-1,5-naphthyridin-2-yl)cyclopropyl)benzamide] are 9.15 and 7.20.
Regarding `CC(C(=O)Nc1ccc(F)cc1)c1ccc2c(n1)CCCN2c1ccnc(C2CC2)n1` (stereo not drawn) [Example 365, 2-(5-(2-cyclopropylpyrimidin-4-yl)-5,6,7,8-tetrahydro-1,5-naphthyridin-2-yl)-N-(4-fluorophenyl)propanamide], the pIC50 on IDO1 [1] (read-out: Hela IC50) was 8.44; at IDO1 [2] it was 6.60.
`O=C(Nc1ccc(Cl)cc1)C1(c2ccc3c(n2)CCN3c2ccccn2)CCC1` [Example 272, N-(4-chlorophenyl)-1-[1-(pyridin-2-yl)-2,3-dihydro-1H-pyrrolo[3,2-b]pyridin-5-yl]cyclobutane-1-carboxamide]: the pIC50 at IDO1 [1] (setting [3]) was 8.72; against IDO1 [2] it was 6.47.
As to `Cc1cncc(N2CCCc3nc(C4(NC(=O)c5ccc(Cl)cc5)CCC4)ccc32)c1` [Example 406, 4-chloro-N-(1-(5-(5-methylpyridin-3-yl)-5,6,7,8-tetrahydro-1,5-naphthyridin-2-yl)cyclobutyl)benzamide], the pIC50 at IDO1 [1] (setting [3]) was 8.50; against IDO1 [2], 5.53.
As for `Cc1ccnc(C(=O)N2CCCc3nc(C(C)NC(=O)c4ccc(Cl)cc4)ccc32)n1` (stereo not drawn) [Example 287, 4-chloro-N-(1-(5-(4-methylpyrimidine-2-carbonyl)-5,6,7,8-tetrahydro-1,5-naphthyridin-2-yl)ethyl)benzamide], the results for the pIC50 on IDO1 [1] (setting [3]) and at IDO1 [2] were 8.74 and 8.22, respectively.
In the same order, the values of `Cc1ccc(C(=O)NC2(c3ccc4c(n3)CCCN4c3ccnc(C)n3)CC2)cc1` [Example 303, 4-methyl-N-(1-(5-(2-methylpyrimidin-4-yl)-5,6,7,8-tetrahydro-1,5-naphthyridin-2-yl)cyclopropyl)benzamide] are 8.67 and 6.97.
`CC(NC(=O)c1ccc(F)cc1)c1ccc2c(n1)CCCN2C(=O)OCC(F)F` (stereo not drawn) [Example 309, 2,2-difluoroethyl 6-(1-(4-fluorobenzamido)ethyl)-3,4-dihydro-1,5-naphthyridine-1(2H)-carboxylate]: the pIC50 at IDO1 [1] (read-out: Hela IC50) is 7.61; against IDO1 [2] it was 7.11.
For the compound `O=C(c1cccc(Cl)c1)N1CCc2nc(C3(C(=O)Nc4ccc(F)cc4)CCC3)ccc21` [Example 275, 1-[1-(3-chlorobenzene-1-carbonyl)-2,3-dihydro-1H-pyrrolo[3,2-b]pyridin-5-yl]-N-(4-fluorophenyl)cyclobutane-1-carboxamide], the negative logarithm of the IC50 (pIC50) is 8.52 on IDO1 [1] (setting [3]) and 7.03 against IDO1 [2].
In the case of `COC[C@@H](C)OC(=O)N1CCCc2nc(C(C)NC(=O)c3ccc(F)cc3)ccc21` (stereo partly drawn) [Example 315, (R)-1-methoxypropan-2-yl 6-(1-(4-fluorobenzamido)ethyl)-3,4-dihydro-1,5-naphthyridine-1(2H)-carboxylate], the pIC50 at IDO1 [1] (read-out: Hela IC50) was 8.54; at IDO1 [2] it was 7.74.
Turning to `CC(NC(=O)c1ccc(Cl)cc1)c1ccc2c(n1)CCCN2c1cccc(C2CC2)n1` (stereo not drawn) [Example 351, 4-chloro-N-(1-(5-(6-cyclopropylpyridin-2-yl)-5,6,7,8-tetrahydro-1,5-naphthyridin-2-yl)ethyl)benzamide], the pIC50 at IDO1 [1] (read-out: Hela IC50) is 8.47; against IDO1 [2], 7.74.
On to `CC(C(=O)Nc1ccc(F)cc1)c1ccc2c(c1)CCCN2C(=O)c1cnn(C)c1` (stereo not drawn) [Example 48, N-(4-fluorophenyl)-2-[1-(1-methyl-1H-pyrazole-4-carbonyl)-1,2,3,4-tetrahydroquinolin-6-yl]propanamide], for which the results for the pIC50 on IDO1 [1] (setting [3]) and on IDO1 [2] were 7.80 and 6.49, respectively.
As for `COCCOC(=O)N1CCCc2nc(C3(NC(=O)c4ccc(Cl)cc4)CCC3)ccc21` [Example 413, 2-methoxyethyl 6-(1-(4-chlorobenzamido)cyclobutyl)-3,4-dihydro-1,5-naphthyridine-1(2H)-carboxylate], the pIC50 at IDO1 [1] (read-out: Hela IC50) was 8.42; at IDO1 [2], 7.77.
